Results reported in patent publication US20120302490A1, “Bleach Catalyst Compounds, Method For The Production Thereof And Use Thereof” (CLARIANT FINANCE (BVI) LIMITED, priority 2009, published 2012).

Assay: Water absorption (hygroscopicity) of the solid upon storage
Type: physicochemical
Experimental: Tri-μ-oxobis[(1,4,7-trimethyl-1,4,7-triazacyclononane)manganese(IV)]dichloride is prepared analogously to comparative example 1 and isolated in pure form as a red-brown powder. 4.7 g (8 mmol) thereof are dissolved in 50 ml of water and admixed with 3.1 g (16 mmol) of toluene-4-sulfonic acid sodium salt (Merck). After-stirring is carried out for 1 hour at room temperature, followed by evaporation to dryness on a rotary evaporator.
Analogously to comparative example 1, an aqueous solution of 0.2 mol of tri-μ-oxobis[(1,4,7-trimethyl-1,4,7-triazacyclononane)manganese(IV)]dichloride in water is prepared and freed from manganese oxides/hydroxides. The salts contained as a result of the reaction (sodium chloride) remain in the solution. At 25° C., 0.4 mol (77.6 g) of solid toluene-4-sulfonic acid sodium salt (Merck) is added and the mixture is after-stirred for 30 minutes. The clear dark red solution is then evaporated to dryness. Drying in a vacuum drying cabinet gives a crystalline red-violet solid in 92.7% yield, a mixture of tri-μ-oxobis[(1,4,7-trimethyl-1,4,7-triaza-cyclononane)manganese(IV)]dichloride, sodium toluenesulfonate and sodium chloride.
The procedure is in accordance with example 2 but adding sodium cumenesulfonate instead of the sodium toluene-4-sulfonate (equimolar exchange of sodium toluene-4-sulfonate for sodium cumenesulfonate). Evaporation at 50° C. gives a red-brown solid which, after 5 days, absorbs 7.1% by weight of water and in so doing becomes lumpy.
4.4 g (7.5 mmol) of isolated tri-μ-oxobis[(1,4,7-trimethyl-1,4,7-triazacyclo-nonane)manganese(IV)]dichloride according to comparative example 1 are dissolved in 50 ml of water, and 4.3 g (15 mmol) of sodium dodecylsulfate are added. The mixture is after-stirred for 1 hour at room temperature and then evaporated to dryness on a rotary evaporator. This gives 8.7 g of crystalline red solid which, after storage for 5 days at room temperature, absorbs 8.7% by weight of water and in so doing becomes lumpy.

With CN1CCN(C)CCN(C)CC1.CN1CCN(C)CCN(C)CC1.[Cl-].[Cl-].[O]1[Mn+]2[O][Mn+]1[O]2 [compound 1, tri-μ-oxobis[(1,4,7-trimethyl-1,4,7-triazacyclononane)-manganese(IV)]dichloride] the “hygroscopicity of isolated powder” value (as isolated, red-brown powder) was “strongly hygroscopic”, the “physical state after storage” value (open dish, room temperature, 24 hours) was “becomes liquid” and the “water absorbed upon storage” value (open dish, room temperature, over the course of 24 hours) was > 17 % by weight.
